Results taken from patent publication US9445594B2, “Molecules having certain pesticidal utilities, intermediates, compositions, and processes, related thereto” (priority 2014, dated 2016).

How the values were obtained:
Type in all cases: in vivo
[1] = tested on: Beet Armyworm (Spodoptera exigua, LAPHEG) ("BAW"); experiment: Bioassays on BAW, 128-well diet tray assay; conditions: 168 h, second instar larvae, 50 μg/cm^2 on artificial diet, 25° C., five to seven days, average of eight wells, read-out: BAW % Control (or Mortality) rating
In short: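 One to five second-instar larvae were placed per well on artificial diet surface-treated with 50 μg/cm^2 compound from 90:10 acetone-water, dried before infestation. Trays were held at 25 °C, 14:10 light-dark, for five to seven days. Percent mortality was averaged over eight wells.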

[2] = tested on: Cabbage Looper (Trichoplusia ni, TRIPNI) ("CL"); experiment: Bioassays on CL, 128-well diet tray assay; conditions: 168 h, second instar larvae, 50 μg/cm^2 on artificial diet, 25° C., five to seven days, average of eight wells, read-out: CL % Control (or Mortality) rating
In short: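 Second-instar larvae (one to five per well) on artificial diet surface-treated with 50 μg/cm^2 compound in 90:10 acetone-water, eight wells per treatment. Held at 25° C., 14:10 light-dark for five to seven days. Percent mortality scored per well and averaged over the eight wells.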

[3] = tested on: Corn Earworm (Helicoverpa zea, HELIZE) ("CEW"); experiment: Bioassays on CEW, 128-well diet tray assay; conditions: 168 h, second instar larvae, 50 μg/cm^2 on artificial diet, 25° C., five to seven days, average of eight wells, read-out: CEW % Control (or Mortality) rating
Protocol: Certain molecules disclosed in this document were tested against BAW, CEW, and CL using procedures described in the following examples. In the reporting of the results, the “BAW, CEW, & CL Rating Table” was used (See Table Section).
Bioassays on CEW were conducted using a 128-well diet tray assay. one to five second instar CEW larvae were placed in each well (3 mL) of the diet tray that had been previously filled with 1 mL of artificial diet to which 50 μg/cm^2 of the test compound (dissolved in 50 μL of 90:10 acetone-water mixture) had been applied (to each of eight wells) and then allowed to dry. Trays were covered with a clear self-adhesive cover, and held at 25° C., 14:10 light-dark for five to seven days. Percent mortality was recorded for the larvae in each well; activity in the eight wells was then averaged. The results are indicated in the table entitled “Table ABC: Biological Results” (See Table Section). Bioassays on CL

[4] = tested on: Green Peach Aphid (Myzus persicae, MYZUPE) ("GPA"); experiment: Bioassays on GPA, foliar spray of infested cabbage seedlings; conditions: 72 h, 200 ppm spray on cabbage seedlings, graded after three days, Abbott corrected % control, read-out: GPA % Control (or Mortality) rating
Protocol: Certain molecules disclosed in this document were tested against GPA using procedures described in the following example. In the reporting of the results, the “GPA Rating Table” was used (See Table Section).
Cabbage seedlings grown in 3-inch pots, with 2-3 small (3-5 cm) true leaves, were used as test substrate. The seedlings were infested with 20-50 GPA (wingless adult and nymph stages) one day prior to chemical application. Four pots with individual seedlings were used for each treatment. Test compounds (2 mg) were dissolved in 2 mL of acetone/methanol (1:1) solvent, forming stock solutions of 1000 ppm test compound. The stock solutions were diluted 5× with 0.025% Tween 20 in water to obtain the solution at 200 ppm test compound. A hand-held aspirator-type sprayer was used for spraying a solution to both sides of […] leaves until runoff. Reference plants (solvent check) were sprayed with the diluent only containing 20% by volume of acetone/methanol (1:1) solvent. Treated plants were held in a holding room for three days at approximately 25° C. and ambient relative humidity (RH) prior to grading. Evaluation was conducted by counting the number of live aphids per plant under a microscope. Percent Control was measured by using Abbott's correction formula (W. S. Abbott, “A Method of Computing the Effectiveness of an Insecticide” J. Econ. Entomol. 18 (1925), pp. 265-267) as follows. Corrected % Control=100*(X−Y)/X • where • X=No. of live aphids on solvent check plants and • Y=No. of live aphids on treated plants

[5] = tested on: Yellow Fever Mosquito (Aedes aegypti, AEDSAE) ("YFM"); experiment: Bioassays on YFM, 96-well plate larval assay; conditions: about 1 day-old larvae, from 4000 ppm DMSO master plate diluted, room temperature, scored after 3 days
In short: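 Compounds from 4000 ppm DMSO master plates, diluted in 90:10 water:acetone, dispensed into 96-well plates, six replicates. About 1-day-old larvae added in liver-powder water. Wells covered, held 3 days at room temperature, then scored for mortality.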

`O=C(Nc1ccc(-c2ncn(-c3ccc(OC(F)(F)F)cc3)n2)cc1)Nc1ccccc1C1CC1` [F40, 1-(2-cyclopropylphenyl)-3-(4-(1-(4-(trifluoromethoxy)phenyl)-1H-1,2,4-triazol-3-yl)phenyl)urea] was tested, and the mortality at 50 µg/cm2 [1] was 50 to 100%, the mortality at 50 µg/cm2 [2] was 50 to 100% and the mortality at 50 µg/cm2 [3] was 50 to 100%.

In the case of `CC(C)c1ccccc1NC(=O)NCc1ccc(-c2ncn(-c3ccc(OC(F)(F)C(F)(F)F)cc3)n2)cc1` [F34, 1-(2-isopropylphenyl)-3-(4-(1-(4-(perfluoroethoxy)phenyl)-1H-1,2,4-triazol-3-yl)benzyl)urea], the mortality at 50 µg/cm2 [1] is reported as 0%, the mortality at 50 µg/cm2 [2] is reported as 50 to 100% and the mortality at 50 µg/cm2 [3] is reported as 50 to 100%.

`Cc1nc(Cl)ccc1NC(=O)Nc1ccc(-c2ncn(-c3ccc(OC(F)(F)F)cc3)n2)cc1` [F36, 1-(6-Chloro-2-methylpyridin-3-yl)-3-(4-(1-(4-(trifluoromethoxy)phenyl)-1H-1,2,4-triazol-3-yl)phenyl)urea] gave a mortality at 50 µg/cm2 [1] of 50 to 100%, a mortality at 50 µg/cm2 [3] of 50 to 100% and a mortality at 200 ppm [4] of 0 to 80%.

In the case of `COc1ccc(NC(=O)Nc2ccc(-c3ncn(-c4ccc(OC(F)(F)F)cc4)n3)cc2)cn1` [F10, 1-(6-Methoxypyridin-3-yl)-3-(4-(1-(4-(trifluoromethoxy)phenyl)-1H-1,2,4-triazol-3-yl)phenyl)urea], the mortality at 50 µg/cm2 [1] is reported as 50 to 100%, the mortality at 50 µg/cm2 [3] is reported as 50 to 100% and the mortality at 200 ppm [4] is reported as 0 to 80%.

`CCOc1ccc(NC(=O)Nc2ccc(-c3ncn(-c4ccc(OC(F)(F)F)cc4)n3)cc2)cc1` [F2, 1-(4-ethoxyphenyl)-3-(4-(1-(4-(trifluoromethoxy)phenyl)-1H-1,2,4-triazol-3-yl)phenyl)urea] gave a mortality at 50 µg/cm2 [1] of 0%, a mortality at 50 µg/cm2 [3] of 0% and a mortality at 200 ppm [4] of 0%.

For `FC(F)(F)Oc1ccc(-n2cnc(-c3ccc(NC(=S)Nc4ccccc4-n4cccc4)cc3)n2)cc1` [F74, 1-(2-(1H-Pyrrol-1-yl)phenyl)-3-(4-(1-(4-(trifluoromethoxy)phenyl)-1H-1,2,4-triazol-3-yl)phenyl)thiourea], the mortality at 50 µg/cm2 [1] was 50 to 100%, the mortality at 50 µg/cm2 [2] was 50 to 100% and the mortality at 50 µg/cm2 [3] was 50 to 100%.

`FC(F)(F)Oc1ccc(-n2cnc(-c3ccc(NC(=S)Nc4ccccc4-c4ccco4)cc3)n2)cc1` [F30, 1-(2-(Furan-2-yl)phenyl)-3-(4-(1-(4-(trifluoromethoxy)phenyl)-1H-1,2,4-triazol-3-yl)phenyl)thiourea] gave a mortality at 50 µg/cm2 [1] of 50 to 100%, a mortality at 50 µg/cm2 [2] of 50 to 100% and a mortality at 50 µg/cm2 [3] of 50 to 100%. For the same compound, the “YFM % Control (or Mortality) rating” value [5] was “A (80-100)”.

With `CC(C)n1cnnc1-c1ccccc1NC(=O)Nc1ccc(-c2ncn(-c3ccc(OC(F)(F)F)cc3)n2)cc1` [F55, 1-(2-(4-Isopropyl-4H-1,2,4-triazol-3-yl)phenyl)-3-(4-(1-(4-(trifluoromethoxy)phenyl)-1H-1,2,4-triazol-3-yl)phenyl)urea] the mortality at 50 µg/cm2 [1] was 50 to 100%, the mortality at 50 µg/cm2 [2] was 50 to 100% and the mortality at 50 µg/cm2 [3] was 0%. The “YFM % Control (or Mortality) rating” value [5] was “A (80-100)”.

`Cc1ccc(C(C)C)c(NC(=S)NCCCc2ccc(-c3ncn(-c4ccc(OC(F)(F)F)cc4)n3)cc2)c1` [F29, 1-(2-isopropyl-5-methylphenyl)-3-(3-(4-(1-(4-(trifluoromethoxy)phenyl)-1H-1,2,4-triazol-3-yl)phenyl)propyl)thiourea] was tested, and the mortality at 50 µg/cm2 [1] was 50 to 100%, the mortality at 50 µg/cm2 [2] was 50 to 100% and the mortality at 50 µg/cm2 [3] was 50 to 100%. For the same compound, the “YFM % Control (or Mortality) rating” value [5] was “A (80-100)”.

`Cc1ccc(C(C)C)c(NC(=O)Nc2ccc(-c3ncn(-c4ccc(OC(F)(F)C(F)(F)F)cc4)n3)cc2)c1` [F57, 1-(2-Isopropyl-5-methylphenyl)-3-(4-(1-(4-(perfluoroethoxy)phenyl)-1H-1,2,4-triazol-3-yl)phenyl)urea] was tested, and the mortality at 50 µg/cm2 [1] was 50 to 100%, the mortality at 50 µg/cm2 [2] was 50 to 100% and the mortality at 50 µg/cm2 [3] was 50 to 100%. For the same compound, the “YFM % Control (or Mortality) rating” value [5] was “D (No activity noticed in this bioassay)”.

Compound `FC(F)(F)Oc1ccc(-n2cnc(-c3ccc(NC(=S)Nc4ccccc4Cc4ccccc4)cc3)n2)cc1` [F58, 1-(2-Benzylphenyl)-3-(4-(1-(4-(trifluoromethoxy)phenyl)-1H-1,2,4-triazol-3-yl)phenyl)thiourea] has a mortality at 50 µg/cm2 [1] of 50 to 100%, a mortality at 50 µg/cm2 [2] of 50 to 100% and a mortality at 50 µg/cm2 [3] of 50 to 100%. For the same compound, the “YFM % Control (or Mortality) rating” value [5] was “D (No activity noticed in this bioassay)”.

With `CC(C)n1cnnc1-c1ccccc1NC(=S)Nc1ccc(-c2ncn(-c3ccc(OC(F)(F)F)cc3)n2)cc1` [F48, 1-(2-(4-isopropyl-4H-1,2,4-triazol-3-yl)phenyl)-3-(4-(1-(4-(trifluoromethoxy)phenyl)-1H-1,2,4-triazol-3-yl)phenyl)thiourea] the mortality at 50 µg/cm2 [1] was 50 to 100%, the mortality at 50 µg/cm2 [2] was 50 to 100% and the mortality at 50 µg/cm2 [3] was 0 to 50%. The “YFM % Control (or Mortality) rating” value [5] was “A (80-100)”.

`FC(F)(F)Oc1ccc(-n2cnc(-c3ccc(NC(=S)Nc4ccccc4-c4noc(C5CC5)n4)cc3)n2)cc1` [F23, 1-(2-(5-Cyclopropyl-1,2,4-oxadiazol-3-yl)phenyl)-3-(4-(1-(4-(trifluoromethoxy)phenyl)-1H-1,2,4-triazol-3-yl)phenyl)thiourea] showed a mortality at 50 µg/cm2 [1] of 50 to 100%, a mortality at 50 µg/cm2 [2] of 50 to 100% and a mortality at 50 µg/cm2 [3] of 50 to 100%. The “YFM % Control (or Mortality) rating” value [5] was “A (80-100)”.

With `O=C(NCc1ccc(-c2ncn(-c3ccc(OC(F)(F)C(F)(F)F)cc3)n2)cc1)Nc1ccccc1-c1ccccc1` [F73, 1-([1,1′-Biphenyl]-2-yl)-3-(4-(1-(4-(perfluoroethoxy)phenyl)-1H-1,2,4-triazol-3-yl)benzyl)urea] the mortality at 50 µg/cm2 [1] was 50 to 100%, the mortality at 50 µg/cm2 [2] was 50 to 100% and the mortality at 50 µg/cm2 [3] was 50 to 100%.

Work on `O=C(Nc1ccc(-c2ncn(-c3ccc(OC(F)(F)F)cc3)n2)cc1)Nc1ccccc1-c1ccco1` [F21, 1-(2-(Furan-2-yl)phenyl)-3-(4-(1-(4-(trifluoromethoxy)phenyl)-1H-1,2,4-triazol-3-yl)phenyl)urea] yielded a mortality at 50 µg/cm2 [1] of 50 to 100%, a mortality at 50 µg/cm2 [2] of 50 to 100% and a mortality at 50 µg/cm2 [3] of 50 to 100%. The “YFM % Control (or Mortality) rating” value [5] was “D (No activity noticed in this bioassay)”.

`CCOc1ccc(NC(=O)Nc2ccc(-c3ncn(-c4ccc(OC(F)(F)F)cc4)n3)cc2)cn1` [F8, 1-(6-Ethoxypyridin-3-yl)-3-(4-(1-(4-(trifluoromethoxy)phenyl)-1H-1,2,4-triazol-3-yl)phenyl)urea] showed a mortality at 50 µg/cm2 [1] of 0%, a mortality at 50 µg/cm2 [3] of 0% and a mortality at 200 ppm [4] of 0%.

`CCOC(=O)c1ccc(NC(=O)Nc2ccc(-c3ncn(-c4ccc(OC(F)(F)F)cc4)n3)cc2)c(C)n1` [F41, Ethyl 6-methyl-5-(3-(4-(1-(4-(trifluoromethoxy)phenyl)-1H-1,2,4-triazol-3-yl)phenyl)ureido)picolinate] showed a mortality at 50 µg/cm2 [1] of 0%, a mortality at 50 µg/cm2 [3] of 0% and a mortality at 200 ppm [4] of 0%.

Compound `CC(C)c1ccccc1NC(=O)NCc1ccc(-c2ncn(-c3ccc(OC(F)(F)F)cc3)n2)cc1` [F65, 1-(2-Isopropylphenyl)-3-(4-(1-(4-(trifluoromethoxy)phenyl)-1H-1,2,4-triazol-3-yl)benzyl)urea] has a mortality at 50 µg/cm2 [1] of 0%, a mortality at 50 µg/cm2 [2] of 50 to 100% and a mortality at 50 µg/cm2 [3] of 0 to 50%. For the same compound, the “YFM % Control (or Mortality) rating” value [5] was “D (No activity noticed in this bioassay)”.
